# Laboratory results taken from ChEMBL document CHEMBL2163198, “Substituent effects on desferrithiocin and desferrithiocin analogue iron-clearing and toxicity profiles” (J Med Chem, 2012).
# Assays:
# Rattus norvegicus [1] = type: toxicity, organism-based; conditions: in vivo, po, 168 h
# Sapajus apella [2] = assay: Iron excretion in iron-overloaded Cebus apella feces at 75 umol/kg, po after 48 hrs by flame absorption spectroscopy analysis relative to control; type: functional
# Sapajus apella [3] = assay: Iron clearing effect in iron-overloaded Cebus apella at 75 umol/kg, po after 48 hrs by flame absorption spectroscopy analysis; type: functional
# Sapajus apella [4] = assay: Iron excretion in iron-overloaded Cebus apella urine at 75 umol/kg, po after 48 hrs by flame absorption spectroscopy analysis relative to control; type: functional
# [5] = Octanol-water apparent partition coefficient, log D of the compound at pH 7.4; type: physicochemical; conditions: for logD: read-out: LogD7.4
# Rattus norvegicus [6] = assay: Iron clearing effect in noniron-overloaded bile duct cannulated Sprague-Dawley rat assessed as maximum iron clearance time at 300 umol/kg, po; type: functional
# Rattus norvegicus [7] = assay: Toxicity in rat assessed as mortality at 384 umol/kg, po qd for 10 days; type: organism-based; conditions: in vivo, 240 h
# Rattus norvegicus [8] = assay: Iron clearing effect in noniron-overloaded bile duct cannulated Sprague-Dawley rat at 300 umol/kg, po after 48 hrs; type: functional
# Rattus norvegicus [9] = assay: Iron excretion in noniron-overloaded bile duct cannulated Sprague-Dawley rat urine at 300 umol/kg, po after 48 hrs relative to control; type: functional
# Rattus norvegicus [10] = assay: Iron excretion in noniron-overloaded bile duct cannulated Sprague-Dawley rat bile at 300 umol/kg, po after 48 hrs relative to control; type: functional
# Sapajus apella [11] = assay: Iron excretion in iron-overloaded Cebus apella feces at 75 umol/kg, sc after 48 hrs by flame absorption spectroscopy analysis relative to control; type: functional
# Sapajus apella [12] = assay: Iron excretion in iron-overloaded Cebus apella urine at 75 umol/kg, sc after 48 hrs by flame absorption spectroscopy analysis relative to control; type: functional
# Rattus norvegicus [13] = assay: Iron excretion in noniron-overloaded bile duct cannulated Sprague-Dawley rat bile at 150 umol/kg, po after 24 hrs relative to control; type: functional
# Rattus norvegicus [14] = assay: Iron excretion in noniron-overloaded bile duct cannulated Sprague-Dawley rat urine at 150 umol/kg, po after 24 hrs relative to control; type: functional
# Rattus norvegicus [15] = assay: Iron clearing effect in noniron-overloaded bile duct cannulated Sprague-Dawley rat at 150 umol/kg, po after 24 hrs; type: functional
# Rattus norvegicus [16] = assay: Iron clearing effect in noniron-overloaded bile duct cannulated Sprague-Dawley rat assessed as maximum iron clearance time at 150 umol/kg, po; type: functional
# Sapajus apella [17] = assay: Iron clearing effect in iron-overloaded Cebus apella at 150 umol/kg, po after 48 hrs by flame absorption spectroscopy analysis; type: functional
# Rattus norvegicus [18] = type: toxicity, organism-based, Urine; conditions: in vivo, po, 168 h
# Sapajus apella [19] = assay: Iron excretion in iron-overloaded Cebus apella urine at 150 umol/kg, po after 48 hrs by flame absorption spectroscopy analysis relative to control; type: functional
# Rattus norvegicus [20] = type: toxicity, organism-based, Serum; conditions: in vivo, po, 168 h
# Sapajus apella [21] = assay: Iron excretion in iron-overloaded Cebus apella feces at 150 umol/kg, po after 48 hrs by flame absorption spectroscopy analysis relative to control; type: functional
# Rattus norvegicus [22] = type: toxicity, organism-based, Blood; conditions: in vivo, po, 168 h
# Rattus norvegicus [23] = type: toxicity, organism-based, Urine; conditions: in vivo, po, 168 h; remark: listed apart in the source
Structure (SMILES),Activity (Rattus norvegicus [1]),Activity (Sapajus apella [2]),Activity (Sapajus apella [3]),Activity (Sapajus apella [4]),logD [5],Time (Rattus norvegicus [6]),further results
C[C@]1(C(=O)[O-])CSC(c2ncc(O)cc2O)=N1.[Na+],Non-toxic,58%,10%,42%,-1.68,6 h,
COCCOCCOc1ccc(C2=N[C@@](C)(C(=O)[O-])CS2)c(O)c1.[Na+],Non-toxic,83%,28.7%,17%,,12 h,Activity (Rattus norvegicus [7]): Non-toxic; Activity (Rattus norvegicus [8]): 26.7%; Activity (Rattus norvegicus [9]): 3%; LogD7.4 [5]: -0.89; Activity (Rattus norvegicus [10]): 97%
COCCOCCOc1ccnc(C2=N[C@@](C)(C(=O)[O-])CS2)c1O.[Na+],Non-toxic,40%,,60%,-1.38,6 h,Activity (Sapajus apella [11]): 64%; Activity (Sapajus apella [12]): 36%
C[C@]1(C(=O)[O-])CSC(c2ccccc2O)=N1.[Na+],,76%,21.5%,24%,,,Activity (Rattus norvegicus [13]): 100%; Activity (Rattus norvegicus [14]): 0%; Activity (Rattus norvegicus [15]): 2.7%; Time (Rattus norvegicus [16]): 6 h
COCCOCCOc1cnc(C2=N[C@@](C)(C(=O)[O-])CS2)c(O)c1.[Na+],Non-toxic,63%,,37%,-1.59,6 h,
C[C@]1(C(=O)[O-])CSC(c2ncccc2O)=N1.[Na+] [DESFERRITHIOCIN SODIUM],Toxic,,,,,,Activity (Sapajus apella [17]): 16.1%; Activity (Rattus norvegicus [18]): 192 ng/kg/day; Activity (Sapajus apella [19]): 22%; Activity (Rattus norvegicus [13]): 93%; Activity (Rattus norvegicus [14]): 7%; Activity (Rattus norvegicus [20]): 5.1 mg/dL; Activity (Sapajus apella [21]): 78%; Activity (Rattus norvegicus [15]): 5.5%; Time (Rattus norvegicus [16]): 3 h; Activity (Rattus norvegicus [22]): 139 mg/dL; Activity (Rattus norvegicus [23]): 1528 ng/kg/day
COCCOCCOc1cccc(C2=N[C@@](C)(C(=O)[O-])CS2)c1O.[Na+],,86%,22.5%,14%,-0.96,6 h,Activity (Rattus norvegicus [8]): 15.1%; Activity (Rattus norvegicus [9]): 1%; Activity (Rattus norvegicus [10]): 99%
C[C@]1(C(=O)[O-])CSC(c2ccc(O)cc2O)=N1.[Na+] [DEFERITRIN SODIUM],Non-toxic,,,,,3 h,Activity (Sapajus apella [17]): 16.8%; Activity (Sapajus apella [19]): 12%; Activity (Sapajus apella [21]): 88%; Activity (Rattus norvegicus [23]): 69 ng/kg/day
